# According to US10221174B2, “N-(phenylsulfonyl)benzamides and related compounds as BCL-2 inhibitors” (THE REGENTS OF THE UNIVERSITY OF MICHIGAN, priority 2016, dated 2019):
# Like-named read-outs stand apart in the source and are kept apart here.
# Columns and labels:
# Mcl-1 = Mcl-1 (Homo sapiens (Human), UniProt Q07820); experiment: Fluorescence polarization competitive binding assay, Mcl-1; settings: FP competition, 20 nM Mcl-1, 2 nM Flu-BID probe; read-out: Inhibitory activity IC50 Mcl-1
# Method: Fluorescence polarization values were measured using the Infinite M-1000 plate reader (Tecan U.S., Research Triangle Park, N.C.) in Microfluor 1 96-well, black, round-bottom plates (Thermo Scientific). […] Plates were mixed and incubated at room temperature for 1 hour with gentle shaking to assure equilibrium. […] Equilibrium dissociation constants (Kd) were then calculated by fitting the sigmoidal dose-dependent FP increases as a function of protein concentrations using Graphpad Prism 5.0 software (Graphpad Software, San Diego, Calif.).
# Mixtures of 5 μl of the tested inhibitors in DMSO and 120 μl of pre-incubated protein/probe complexes in the assay buffer were added into assay plates and incubated at room temperature for 2 hours with gentle shaking. […] FP values were measured as described above. IC50 values were determined by nonlinear regression fitting of the competition curves.
# RS4;11 cells = experiment: RS4;11 cell viability, CCK-8 assay; assay type: cell-based; settings: Homo sapiens, RS4-11, 96 h, CCK-8, 4 days, read-out: RS4, 11 IC50 (Bcl-2 dependent)
# Method in brief: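 RS4;11 cells seeded at 10000 cells/well in medium with 10% FBS, cultured overnight, then exposed to serially diluted compound for 4 days at 37° C., 5% CO2. Viability by CCK-8 absorbance at 450 nm, normalized to vehicle; IC50 by nonlinear regression.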
# [1] = tested on: RS4;11 leukemia xenograft; experiment: RS4;11 leukemia xenograft model; assay type: in vivo; settings: nude mice, oral gavage
# Method: The antitumor activity of Cpd. No. 6 (compound 6) was also studied in the RS4;11 leukemia xenograft model. Human RS4;11 tumor cells were injected into nude mice and treatment started on day 11 when the tumor size reached approximately 100 mm^3. Cpd. No. 6 was administered via oral gavage at indicated doses and schedules. Cpd.
# Pharmacokinetics in rats = assay type: in vivo
# Method: The pharmacokinetics of ABT-199 and representative Compounds of the Disclosure were evaluated in rats at an IV dose of 2 mg/kg and an oral dose of 20 mg/kg.
# Chain of Mcl-1 (Q07820 whole entry): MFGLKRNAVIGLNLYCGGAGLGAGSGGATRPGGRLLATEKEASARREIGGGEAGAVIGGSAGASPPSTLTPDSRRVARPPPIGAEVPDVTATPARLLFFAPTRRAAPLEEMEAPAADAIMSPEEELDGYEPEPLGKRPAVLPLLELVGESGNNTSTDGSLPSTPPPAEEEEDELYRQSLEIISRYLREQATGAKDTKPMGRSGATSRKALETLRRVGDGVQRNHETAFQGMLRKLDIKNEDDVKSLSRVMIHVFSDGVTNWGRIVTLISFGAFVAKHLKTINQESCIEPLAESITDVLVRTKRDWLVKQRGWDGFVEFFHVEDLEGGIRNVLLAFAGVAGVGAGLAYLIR
compound,measurement,setting,value
"O=C(NS(=O)(=O)c1ccc(NC[C@H]2COCCO2)c([N+](=O)[O-])c1)c1ccc(N2CCN(CC3=C(c4ccc(Cl)cc4)CC4(CCC4)CC3)CC2)cc1Oc1cnc2[nH]ccc2c1 [Cpd. No. 6, (S)-N-((4-(((1,4-dioxan-2-yl)methyl)amino)-3-nitrophenyl)sulfonyl)-2-((1H-pyrrolo[2,3-b]pyridin-5-yl)oxy)-4-(4-((6-(4-chlorophenyl)spiro[3.5]non-6-en-7-yl)methyl)piperazin-1-yl)benzamide]",IC50,Mcl-1,> 5 µM
same,IC50,RS4;11 cells,5.5 nM
same,mouse weight,[1]; FIG. 4,does not cause weight loss in mice
same,antitumor activity (tumor growth),"[1]; treatment from day 11, FIG. 3",inhibits tumor growth
same,AUC0-∞ IV,Pharmacokinetics in rats; IV 2 mg/kg,2915 n · gh/mL
same,AUC0-∞ PO,Pharmacokinetics in rats; oral 20 mg/kg,13475 n · gh/mL
same,F(AUC0-t),Pharmacokinetics in rats; oral 20 mg/kg vs IV 2 mg/kg,46.2%
same,MRT inf,"Pharmacokinetics in rats; rat, in vivo, IV 2 mg/kg",2.09 h
same,AUC(0-t),"Pharmacokinetics in rats; rat, in vivo, IV 2 mg/kg, read-out: AUC0-t IV",2900 ng·h/mL
same,clearance,"Pharmacokinetics in rats; rat, in vivo, IV 2 mg/kg, read-out: CL (iv) (converted)",11.6 mL/min/kg
same,Cmax,"Pharmacokinetics in rats; rat, in vivo, IV 2 mg/kg, read-out: Cmax IV",4170 ng/mL
same,Tmax,"Pharmacokinetics in rats; rat, in vivo, IV 2 mg/kg, read-out: Tmax IV",0.083 h
same,Vd,"Pharmacokinetics in rats; rat, in vivo, IV 2 mg/kg, read-out: Vss (iv)",1.44 L/kg
same,half-life,"Pharmacokinetics in rats; rat, in vivo, IV 2 mg/kg, read-out: t1/2 IV (converted)",263 min
same,AUC(0-t),"Pharmacokinetics in rats; rat, in vivo, oral 20 mg/kg, read-out: AUC0-t PO",13400 ng·h/mL
same,Cmax,"Pharmacokinetics in rats; rat, in vivo, oral 20 mg/kg, read-out: Cmax PO",2620 ng/mL
same,Tmax,"Pharmacokinetics in rats; rat, in vivo, oral 20 mg/kg, read-out: Tmax PO",2.67 h
same,half-life,"Pharmacokinetics in rats; rat, in vivo, oral 20 mg/kg, read-out: t1/2 PO (converted)",187 min
